Earlier results as cited in patent US11628197B2, “Methods and compounds for treating effects of COVID-19 disease” (priority 2020, dated 2023).

What was measured:
COVID-19 disease = conditions: US Veterans Administration hospitals, France, China and Brazil
COVID-19 = conditions: study of 243 subjects

Compound	Therapeutic effects after clinical testing (COVID-19 disease)	Efficacy for preventing intubation or death (COVID-19)
CCN(CC)CCCC(C)Nc1ccnc2cc(Cl)ccc12 (stereo not drawn) [chloroquine]	failed to produce desired therapeutic effects	–
CCN(CCO)CCCC(C)Nc1ccnc2cc(Cl)ccc12 (stereo not drawn) [hydroxycholoroquine]	failed to produce desired therapeutic effects	–
Tocilizumab: humanized monoclonal antibody targeting IL-6 receptors	–	failed to show efficacy
